The values below come from paper PMC8149590, “Biochemical Characterization of a Novel Bacterial Laccase and Improvement of Its Efficiency by Directed Evolution on Dye Degradation” (Frontiers in Microbiology, 2021).

SMILES strings stand for the structures.

One assay has as its system T1, rlac1338.
T1 construct: gene lac1338; 1,338 bp gene (about 445 residues), codon-optimised, in pET-32a(+), E. coli BL21(DE3); His-tag fusion (18 kD vector tag), ~68 kD by SDS-PAGE
Nature of the assay: initial rates by OD405, Lineweaver-Burk. Particulars: mutant lac2-9; optimal pH 6.5 and 60°C; ± sign lost in table text; printed base change T698A falls in codon 233, not 232. It is filed as biochemical, uncultured bacterium. The source says:
initial rates by OD405, Lineweaver-Burk on rlac1338
For orientation: Km means the concentration of substrate that gives half-maximal velocity. Consider `CCn1c(=NN=c2sc3cc(S(=O)(=O)O)ccc3n2CC)sc2cc(S(=O)(=O)O)ccc21` [ABTS, 2,2-azide-bis (3-ethylbenzothiazole-6-sulfonic acid)], for which the Km worked out at 76 ± 1.8 µM.

Take `COc1cccc(OC)c1O` [2,6-DMP]: the Km was 560 ± 3.7 µM.

Consider `Oc1ccccc1O` [Catecho], for which the Km amounted to 570 ± 2.9 µM.

Turning to `Oc1cccc2ccccc12` [1-naphthol], the Km was found to be 6040 µM.

On to `COc1ccccc1O` [Guaiacol], for which the Km turned out to be 4300 µM.

Still in this assay, the particulars now being: optimal pH 6.0 and 55°C; ± sign lost in table text.
Turning to `CCn1c(=NN=c2sc3cc(S(=O)(=O)O)ccc3n2CC)sc2cc(S(=O)(=O)O)ccc21` [ABTS, 2,2-azide-bis (3-ethylbenzothiazole-6-sulfonic acid)], the Km was 210 ± 3.3 µM.

Regarding `COc1cccc(OC)c1O` [2,6-DMP], the Michaelis-Menten constant (Km) came to 654 ± 2.1 µM.

With `Oc1ccccc1O` [Catecho], the Km was found to be 507 ± 2.5 µM.

On to `Oc1cccc2ccccc12` [1-naphthol], for which the Km was 5600 µM.

As to `COc1ccccc1O` [Guaiacol], the Km stood at 4900 µM.
